Laboratory results as given in article PMC7570871, “Evaluation of a New ^177Lu-Labeled Somatostatin Analog for the Treatment of Tumors Expressing Somatostatin Receptor Subtypes 2 and 5” (Molecules, 2020).

Experiments:
[1] = assay type: physicochemical; conditions: pH 7.4
Description: To a pre-saturated mixture of 500 µL 1-octanol and 500 µL of phosphate-buffered saline (PBS) (pH 7.4), 10 µL of 1 µM of the ^177Lu-labeled conjugates were added. The solution was vortexed for 1 h to reach the equilibrium and then centrifuged (3000 rpm) for 10 min. From each phase, 100 µL of the aliquot was removed and measured in a γ-counter. Each measurement was repeated three times. Care was taken to avoid cross-contamination between the phases. The partition coefficient was calculated as the average of the logarithmic values (n = 3) of the ratio between the radioactivity in the organic and the PBS phase.

human SST2 = target: T1, human SST2 (Homo sapiens, UniProt P30874); assay: Competition binding assay with 125I-SS-14 on membranes of HEK-SST2 cells; conditions: 125I-SS-14 radioligand
T1 construct: expressed in transfected cells; host or cells: HEK cells (HEK-SST2), stably transfected
T1 sequence (P30874 whole entry): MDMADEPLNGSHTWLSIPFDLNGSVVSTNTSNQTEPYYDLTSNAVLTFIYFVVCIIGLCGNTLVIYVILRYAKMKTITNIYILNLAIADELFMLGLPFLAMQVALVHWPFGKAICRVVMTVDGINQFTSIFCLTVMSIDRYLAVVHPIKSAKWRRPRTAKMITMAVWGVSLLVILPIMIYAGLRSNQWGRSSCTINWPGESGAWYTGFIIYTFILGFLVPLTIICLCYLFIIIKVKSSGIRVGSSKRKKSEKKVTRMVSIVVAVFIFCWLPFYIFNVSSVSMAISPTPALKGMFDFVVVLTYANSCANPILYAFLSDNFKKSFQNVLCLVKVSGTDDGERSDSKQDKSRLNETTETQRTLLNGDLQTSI
Description: (§1) Human Embryonic Kidney (HEK) cells were stably transfected with plasmids encoding the human SST2 and SST5 (HEK-SST2 and HEK-SST5) and cultivated as previously described. […] Nontransfected HEK cells were used as negative control.
(§2) Binding assays were performed as described previously.

human SST5 = target: T2, human SST5 (Homo sapiens, UniProt P35346); assay: Competition binding assay with 125I-SS-14 on membranes of HEK-SST5 cells; conditions: 125I-SS-14 radioligand
T2 construct: expressed in transfected cells; host or cells: HEK cells (HEK-SST5), stably transfected
T2 sequence (P35346 whole entry): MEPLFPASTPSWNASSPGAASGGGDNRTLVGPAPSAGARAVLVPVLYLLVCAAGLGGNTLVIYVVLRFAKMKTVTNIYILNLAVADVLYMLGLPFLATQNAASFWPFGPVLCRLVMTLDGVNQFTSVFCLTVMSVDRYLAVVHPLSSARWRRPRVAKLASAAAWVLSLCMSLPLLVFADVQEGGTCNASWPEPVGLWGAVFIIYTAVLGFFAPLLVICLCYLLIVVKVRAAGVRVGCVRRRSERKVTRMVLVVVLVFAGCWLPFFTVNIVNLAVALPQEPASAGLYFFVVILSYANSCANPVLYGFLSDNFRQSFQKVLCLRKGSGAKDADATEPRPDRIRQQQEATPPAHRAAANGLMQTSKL
Description: as §1, §2

| Structure (SMILES) | logD [1] | IC50 (human SST2) [nM] | IC50 (human SST5) [nM] |
| --- | --- | --- | --- |
| C[C@@H](O)[C@@H]1NC(=O)[C@H](CCCCN)NC(=O)[C@@H](Cc2c[nH]c3ccccc23)NC(=O)[C@H](Cc2cccc3ccccc23)NC(=O)[C@@H](NC(=O)[C@@H](Cc2ccccc2)NC(=O)CN2CCN(CC(=O)O)CCN(CC(=O)O)CCN(CC(=O)O)CC2)CSSC[C@@H](C(=O)N[C@H](CO)[C@@H](C)O)NC1=O [[^177Lu]Lu-DOTA-NOC, metal not drawn, reference compound] | -1.6 ± 0.1 | – | – |
| CC(C)[C@@H]1NC(=O)[C@H](CCCCN)NC(=O)[C@@H](Cc2c[nH]c3ccccc23)NC(=O)[C@H](Cc2ccc(O)c(I)c2)NC(=O)[C@@H](NC(=O)[C@@H](Cc2ccc(N)c(I)c2)NC(=O)CN2CCN(CC(=O)O)CCN(CC(=O)O)CCN(CC(=O)O)CC2)CSSC[C@@H](C(=O)N[C@H](C(N)=O)[C@@H](C)O)NC1=O [^natLu-DOTA-ST8950, metal not drawn] | – | 0.37 | – |
| C[C@@H](O)[C@@H]1NC(=O)[C@H](CCCCN)NC(=O)[C@@H](Cc2c[nH]c3ccccc23)NC(=O)[C@H](Cc2cccc3ccccc23)NC(=O)[C@@H](NC(=O)[C@@H](Cc2ccccc2)NC(=O)CN2CCN(CC(=O)O)CCN(CC(=O)O)CCN(CC(=O)O)CC2)CSSC[C@@H](C(=O)N[C@H](CO)[C@@H](C)O)NC1=O [^natLu-DOTA-NOC, metal not drawn, reference compound] | – | 0.51 | 4.8 |
